Assay results: publication PMC10821046, “Harmaline to Human Mitochondrial Caseinolytic Serine Protease Activation for Pediatric Diffuse Intrinsic Pontine Glioma Treatment” (Pharmaceuticals, 2024)

Experiments:
hClpP = target: T1, hClpP (Homo sapiens, UniProt Q16740); assay: FITC-casein hClpP activity test; assay type: biochemical; conditions: 100 µM, normalized to 100 µM ONC201 activity
T1 construct: made in house; host or cells: E. coli BL21-CodonPlus (DE3)-RIL
Procedure: To assess the potency of the proteolytic activity of hClpP, a FITC–casein assay was performed. In a black, flat-bottom, 96-well plate, a 3 μM solution of purified hClpP in assay buffer (50 mM of HEPES, pH 7.5, 300 mM of KCl, 1 mM of DTT, 15% v/v glycerol; AB) preincubated at 37 °C for 15 min was added to 5 μL of the tested compounds in DMSO at different concentrations (ranging from 1 to 100 μM) and incubated for 15 min at 37 °C under shaking. As a control, three wells were filled with 5 µL of DMSO. The kinetic measurement was started after adding 2 µM of the fluorogenic peptides FITC and casein (Merck, C3777), used as hydrolytic substrates. The fluorescence of the cleaved FITC was recorded over 60 min at 37 °C on a Tecan Infinite M200 Pro (λex: 485 nm, emission λem: 535 nm, gain: 60). The slope in the linear range between 600 and 1800 s was determined and plotted against time. The EC50 for each tested compound was calculated using GraphPad Prism 7.05. Results are reported as the mean of two independent experiments performed in triplicate.

SU-DIPG-36 cells = assay: 2D cell viability assay (CCK8); assay type: cell-based, human; conditions: SU-DIPG-36, 100 µM, 72 h exposure
Procedure: (§1) Patient-derived diffuse intrinsic pontine glioma cell cultures (SU-DIPG-36, SU-DIPG-50) were provided by Dr Michelle Monje (Institutional Review Board (Stanford University) approval). The cells were cultured as a monolayer in media that was changed once a week at 37 °C in 5% CO2 by using Tumor Stem Media composed by: a 1:1 ratio of DMEM/F12 (Invitrogen)/Neurobasal (-A) (Invitrogen), B27 (-A) (Life Technologies, Milan, Italy), 20 ng/mL of human basic fibroblast growth factor (Life Technologies), 20 ng/mL of recombinant human epidermal growth factor (Life Technologies), 10 ng/mL of platelet-derived growth factor-AA, 10 ng/mL of platelet-derived growth factor-BB (Life Technologies), and 20 ng/mL of heparin (StemCell Technologies, Milan, Italy).
(§2) Then, 1 × 10^4 SU-DIPG-36 or SU-DIPG-50 cells/well in 100 µL of culture medium were seeded into 96-well plates and incubated O/N at 37 °C in CO2 (5%). […] Control wells with DMSO were used to evaluate the possible cytotoxicity of the solvent. […] Then, the absorbance was red (λ = 450 nm) with Tecan Infinite 200. GraphPad Prism allowed for the determination of IC50.

SU-DIPG-50 cells = assay: 2D cell viability assay (CCK8); assay type: cell-based, human; conditions: SU-DIPG-50, 100 µM, 72 h exposure
Procedure: as §1, §2

SH-SY-5Y spheroids = assay: 3D cell viability assay (CellTiter-Glo 3D, ATP); assay type: cell-based, human; conditions: 72 h; for viability at 100 µM: Homo sapiens, SH-SY5Y, ATP assay, mean ± SEM; for decrease in cell viability: SH-SY-5Y spheroids, highest concentration (100 µM)
SK-N-AS spheroids = assay: 3D cell viability assay (CellTiter-Glo 3D, ATP); assay type: cell-based, human; conditions: 72 h; for viability at 100 µM: Homo sapiens, SK-N-AS, ATP assay, mean ± SEM; for decrease in cell viability: SK-N-AS spheroids, highest concentration (100 µM)
P-gp = target: T2, P-gp (Homo sapiens, UniProt P08183); assay: Calcein-AM experiment in MDCK-MDR1 cells; assay type: cell-based
T2 construct: expressed in transfected cells; host or cells: MDCK-MDR1
T2 sequence (P08183 whole entry): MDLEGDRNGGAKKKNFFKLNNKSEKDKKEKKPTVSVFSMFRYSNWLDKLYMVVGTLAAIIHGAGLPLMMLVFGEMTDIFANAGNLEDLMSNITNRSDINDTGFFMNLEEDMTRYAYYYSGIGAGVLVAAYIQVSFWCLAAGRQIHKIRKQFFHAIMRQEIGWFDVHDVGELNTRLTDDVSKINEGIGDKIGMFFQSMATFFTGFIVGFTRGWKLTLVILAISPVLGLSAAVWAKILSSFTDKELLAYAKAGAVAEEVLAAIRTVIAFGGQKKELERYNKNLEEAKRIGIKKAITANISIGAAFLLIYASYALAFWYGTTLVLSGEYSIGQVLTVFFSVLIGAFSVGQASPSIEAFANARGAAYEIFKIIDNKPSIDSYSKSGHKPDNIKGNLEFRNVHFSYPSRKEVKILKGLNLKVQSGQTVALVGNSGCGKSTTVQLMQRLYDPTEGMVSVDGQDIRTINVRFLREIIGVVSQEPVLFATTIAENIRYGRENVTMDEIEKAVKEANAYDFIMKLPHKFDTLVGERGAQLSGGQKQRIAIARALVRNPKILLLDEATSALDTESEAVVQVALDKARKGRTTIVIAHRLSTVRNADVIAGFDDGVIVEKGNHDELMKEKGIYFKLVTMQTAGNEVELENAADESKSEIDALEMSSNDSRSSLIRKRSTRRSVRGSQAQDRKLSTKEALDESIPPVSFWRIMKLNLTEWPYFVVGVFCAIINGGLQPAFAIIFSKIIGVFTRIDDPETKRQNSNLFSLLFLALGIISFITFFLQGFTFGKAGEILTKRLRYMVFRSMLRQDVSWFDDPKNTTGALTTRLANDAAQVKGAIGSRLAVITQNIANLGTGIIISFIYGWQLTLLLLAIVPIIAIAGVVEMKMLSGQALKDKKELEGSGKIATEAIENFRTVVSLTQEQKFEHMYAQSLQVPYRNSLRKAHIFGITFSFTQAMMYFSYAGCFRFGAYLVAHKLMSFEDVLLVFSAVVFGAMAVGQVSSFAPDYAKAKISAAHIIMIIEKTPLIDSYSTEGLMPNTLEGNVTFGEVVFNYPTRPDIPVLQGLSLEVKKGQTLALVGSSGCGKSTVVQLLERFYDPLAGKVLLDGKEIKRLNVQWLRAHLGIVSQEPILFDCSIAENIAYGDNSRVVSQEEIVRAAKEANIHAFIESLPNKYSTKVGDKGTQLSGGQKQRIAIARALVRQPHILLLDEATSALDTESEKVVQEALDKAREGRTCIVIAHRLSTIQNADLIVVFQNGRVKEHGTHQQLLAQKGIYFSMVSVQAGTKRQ
Procedure: Here, 3 × 10^4 MDCK-MDR1 cells/well were seeded (100 µL) in a black 96-well culture plate and incubated in CO2 (5%) at 37 °C O/N. The compounds to be tested were added at different concentrations (0.1–100 µM) in 100 µL of culture medium and then incubated for 30 min. […] The fluorescence of the wells containing the tested compounds was compared with that of those containing the untreated cells. The percentage of fluorescence as a function of log[dose] allowed the EC50 values to be determined.

[1] = Drug transport experiments, Caco-2 monolayer; assay type: in vitro ADME; conditions: human, 1 × 10^−4 M
Excerpt: The experiment started with the preparation of the Caco-2 monolayer, which occurred by seeding the cells (20,000/well) in Millicell plates (Millipore, Milan, Italy). Its growth was followed for 21 days by changing the medium occasionally and measuring its transepithelial electrical resistance (TEER) daily using an epithelial voltohmmeter (Millicell-ERS) until at least […] was reached.
After 21 days, the plate was washed twice with Hank’s balanced salt solution (HBSS) (Invitrogen). After the second wash, the wells were filled with buffer, and the plate was kept at 37 °C for 30 min. After the incubation time, the HBSS buffer was replaced with the solutions of the compounds to be tested at a concentration of 1 × 10^−4 M. The plates were placed in an incubator at 37 °C for 120 min. The apparent permeability (Papp), in units of nm s^−1, was calculated.

BCRP = target: T3, BCRP (Homo sapiens, UniProt Q9UNQ0); assay: Hoechst 33342 experiment in MDCK-BCRP cells; assay type: cell-based; conditions: Hoechst 33342, MDCK-BCRP cells
T3 construct: expressed in transfected cells; host or cells: MDCK-BCRP
T3 sequence (Q9UNQ0 1-655): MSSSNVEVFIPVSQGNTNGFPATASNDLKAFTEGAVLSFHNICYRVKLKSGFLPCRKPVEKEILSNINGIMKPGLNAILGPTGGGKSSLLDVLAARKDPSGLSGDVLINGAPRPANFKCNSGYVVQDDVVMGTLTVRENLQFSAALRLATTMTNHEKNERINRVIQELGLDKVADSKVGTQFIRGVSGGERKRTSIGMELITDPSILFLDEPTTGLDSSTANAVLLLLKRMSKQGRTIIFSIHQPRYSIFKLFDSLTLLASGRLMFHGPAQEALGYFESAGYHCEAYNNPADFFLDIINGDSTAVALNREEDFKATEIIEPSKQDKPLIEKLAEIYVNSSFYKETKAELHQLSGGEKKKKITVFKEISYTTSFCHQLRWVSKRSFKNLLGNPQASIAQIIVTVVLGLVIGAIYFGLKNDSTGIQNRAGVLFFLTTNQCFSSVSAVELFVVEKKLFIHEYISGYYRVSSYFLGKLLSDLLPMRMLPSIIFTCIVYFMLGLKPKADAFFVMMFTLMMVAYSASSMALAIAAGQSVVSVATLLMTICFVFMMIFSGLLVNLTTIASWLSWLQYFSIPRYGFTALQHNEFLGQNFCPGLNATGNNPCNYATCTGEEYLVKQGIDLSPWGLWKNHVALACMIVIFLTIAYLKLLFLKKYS
Procedure: Firstly, 3 × 10^4 MDCK-BCRP cells/well were seeded (100 µL) in a 96-well black culture plate and brought to O/N confluence in a 5% CO2 incubator at 37 °C. Different concentrations (0.1–100 µM) of the compounds in the culture medium (100 µL) to be tested were added, and the plate was incubated for 30 min. […] The supernatant was aspirated, and the cells were fixed for 20 min with 4% PFA (100 µL), protecting them from light. Three washes with ice-cold PBS and three washes with saline buffer followed, and then the plate was analyzed (λex 350 nm and λem 460 nm) by Victor3 (PerkinElmer). EC50 values were calculated from the percentage increase in fluorescence compared to log[dose].

T1 sequence (Q16740 with tags, fused parts or gaps): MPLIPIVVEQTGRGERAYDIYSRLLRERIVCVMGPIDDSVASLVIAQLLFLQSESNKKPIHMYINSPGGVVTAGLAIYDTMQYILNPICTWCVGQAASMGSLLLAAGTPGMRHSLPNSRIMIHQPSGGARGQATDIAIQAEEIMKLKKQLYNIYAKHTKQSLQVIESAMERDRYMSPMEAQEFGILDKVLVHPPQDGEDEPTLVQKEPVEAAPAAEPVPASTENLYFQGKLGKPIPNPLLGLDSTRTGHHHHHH

SMILES	activation of hClpP (hClpP)	cancer cell death (cytotoxic effect) (SU-DIPG-36 cells)	cancer cell death (cytotoxic effect) (SU-DIPG-50 cells)	viability at 100 µM (SH-SY-5Y spheroids)	decrease in cell viability (SH-SY-5Y spheroids)	viability at 100 µM (SK-N-AS spheroids)	decrease in cell viability (SK-N-AS spheroids)	EC50 (P-gp)	Papp A→B at 120 min ([1]; Caco-2, apical-basolateral)	Papp B→A at 120 min ([1]; Caco-2, basolateral-apical)	EC50 (BCRP)
COc1ccc2c3c([nH]c2c1)C(C)=NCC3 [Harmaline, 7-methoxy-1-methyl-4,9-dihydro-3H-pyrido[3,4-b]indole]	28%	34%	50%	67.5 ± 13.9%	~ 32.5%	44.2 ± 24.2%	~ 56%	> 100 µM	49.6 ×10⁻⁶ cm/s	254 ×10⁻⁶ cm/s	14.9 µM
Cc1ccccc1CN1C(=O)C2=C(CCN(Cc3ccccc3)C2)N2CCN=C12 [ONC201, reference compound]		83%	70%	13.7 ± 6.23%	~ 85%	17.5 ± 6.8%	~ 85%	13.4 µM			
